Legend:
hKv3.4 channels = target: T1, hKv3.4 channels (Homo sapiens, UniProt Q03721); experiment: Kv3.4 Assay 3 (two-electrode voltage clamp, Xenopus oocytes); type: cell-based; design: dose or concentration left out as unconfirmed
T1 construct: expressed in transfected cells; host or cells: Xenopus laevis oocytes, microinjected in vitro transcribed mRNA
T1 sequence (Q03721 1-635): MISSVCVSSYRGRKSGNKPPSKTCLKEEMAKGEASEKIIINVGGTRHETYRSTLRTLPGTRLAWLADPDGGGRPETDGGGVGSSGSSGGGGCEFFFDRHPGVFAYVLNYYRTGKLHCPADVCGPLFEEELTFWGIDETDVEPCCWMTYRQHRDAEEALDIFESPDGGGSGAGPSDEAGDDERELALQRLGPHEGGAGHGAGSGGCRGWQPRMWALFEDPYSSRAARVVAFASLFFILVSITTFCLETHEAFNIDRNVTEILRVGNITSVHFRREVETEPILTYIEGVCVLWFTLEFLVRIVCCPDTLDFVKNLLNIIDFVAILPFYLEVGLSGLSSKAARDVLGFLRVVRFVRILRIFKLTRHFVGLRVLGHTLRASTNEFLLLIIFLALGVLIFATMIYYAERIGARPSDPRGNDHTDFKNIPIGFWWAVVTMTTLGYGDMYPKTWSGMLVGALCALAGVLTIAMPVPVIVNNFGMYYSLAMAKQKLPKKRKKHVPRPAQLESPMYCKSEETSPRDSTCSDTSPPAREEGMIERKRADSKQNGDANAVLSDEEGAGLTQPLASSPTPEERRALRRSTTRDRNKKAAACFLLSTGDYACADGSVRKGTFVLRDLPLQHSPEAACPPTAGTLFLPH
Method: hKv3.4 channels were heterologously expressed in Xenopus ooctyes following microinjection of in vitro transcribed mRNA (mMessage mMachine kit, Ambion, Austin, TX). Whole-oocyte currents were recorded 1-4 day post-microinjection at room temperature (21-23° C.) under two-electrode voltage-clamp conditions (OC-725C, Warner, Hamden, CT). ND-96 and ND-96 plus the test compound were delivered using a gravity-driven perfusion system. Whole-oocyte currents mediated by hKv3.4 channels were elicited by 400 ms depolarizing steps from −40 to 60 mV in 10 mV increments from a holding potential of −100 mV under in the absence and then presence of test compound. Voltage-conductance curves were constructed from the peak currents evoked at each voltage step, and the data were fitted to a Boltzmann equation. Data acquisition, leak subtraction and initial analyses were performed using pClamp 9.2/10.3 (Molecular Devices, Sunnyvale, CA). Macroscopic currents were low-pass filtered at 0.5-1 kHz and digitized at 1-2 kHz. Leak and capacitive currents were subtracted on line using a p/4 subtraction strategy. Xenopus laevis frogs were handled according IACUC approved protocols and regulations.

[1] = target: T2, human cloned Kv3.4 channels (Homo sapiens, UniProt Q03721); experiment: Kv3.4 Assay 1 (QPatch HT, HEK293); type: cell-based; details: 10 µM concentration (N=2)
T2 construct: expressed in transfected cells
T2 sequence (Q03721 1-635): T1 sequence (Q03721 1-635)
Method: The effect of compounds on human cloned Kv3.4 channels expressed stably in a HEK293 call line was evaluated at room temperature using the QPatch HT® (Sophion Bioscience A/S, Denmark), an automatic parallel patch clamp system. Compounds were evaluated at 10 μM in three cells. The duration of exposure to each test article concentration was 5 minutes.
In preparation for a recording session, intracellular solution was loaded into the intracellular compartments of the QPlate and cell suspension was pipetted into the extracellular compartments. After establishment of a whole-cell configuration, membrane currents were recorded using up to 48 parallel patch clamp amplifiers in the QPatch HT® system. The current records were sampled at 2000 Hz and low-pass Bessel filtered at 400 Hz.
Valid whole-cell recordings met the following criteria: • 1. Seal resistance (Rseal) ≥200 MΩ. • 2. Leak current 25% channel current.

SMILES	effect on Kv3.4 mediated channel currents (hKv3.4 channels)	shift of the voltage-conductance curve for hK3.4 (hKv3.4 channels)	potentiation of the observed Kv3.4 current [1]
Cc1ccc(Oc2ncc(N3C(=O)NC(C)(C)C3=O)cn2)c2c1OCC21CC1 [Compound 1, 5,5-dimethyl-3-[2-(7-methylspiro[2H-benzofuran-3,1′-cyclopropane]-4-yl)oxypyrimidin-5-yl]imidazolidine-2,4-dione]	No significant effect	did not significantly shift	–
CC[C@@]1(C)NC(=O)N(c2cnc(Oc3ccc(C)c(OC(F)(F)F)c3)nc2)C1=O [Compound 2, (5R)-5-ethyl-5-methyl-3-[2-({4-methyl-3-[(trifluoromethyl)oxy]phenyl}oxy)-5-pyrimidinyl]-2,4-imidazolidinedione]	–	–	did not potentiate

— patent US11944623B2, “Modulators of Kv3 channels to treat pain” (Autifony Therapeutics Limited, priority 2015, dated 2024)
